# Assay results reported in paper PMC3798069 (Journal of medicinal chemistry, 2012).
# Marks after values point to notes of the source that are not given here.
# Assays:
# Assay type in all cases: cell-based
# wild-type CqsS = wild-type CqsS (Vibrio cholerae serotype O1, UniProt Q9KM66); settings: for maximal % response at the maximum concentration tested: at 50,000 nM, with respect to CAI-1 = 100%; for QS activity (in words): tested up to 50,000 nM
# CqsS C170Y = CqsS C170Y (Vibrio cholerae serotype O1, UniProt Q9KM66, C170Y); assay: Light-based agonist bioassay with CqsS C170Y mutant strain; settings: at 50,000 nM
# CqsS C170A = CqsS C170A (Vibrio cholerae serotype O1, UniProt Q9KM66, C170A); assay: Light-based agonist bioassay with CqsS C170A mutant strain
smiles,measurement,setting,value
"CC/C=C/CCCCOC(=O)C(O)CC (stereo not shown) [compound 34, (E)-Oct-5-enyl 2-hydroxybutanoate]",fold less active (higher EC50) than C8-ester-CAI-1 (9),wild-type CqsS,> 4 fold
"CCCCOC(=O)C(O)CC (stereo not shown) [compound 17, Butyl 2-hydroxybutanoate]",maximal % response at the maximum concentration tested,wild-type CqsS,23 ^c %
same,QS activity (in words),wild-type CqsS,nearly complete loss of QS activity
"CCOCCOCCOC(=O)C(O)CC (stereo not shown) [compound 23, 2-Hydroxy-2-(2-ethoxyethoxy)ethylbutanoate]",maximal % response at the maximum concentration tested,wild-type CqsS,31 ^c %
same,QS activity (in words),wild-type CqsS,only minimal QS activity
"CCCCCc1cccc(COC(=O)C(O)CC)c1 (stereo not shown) [compound 46, 1-(m-Pentyl-phenyl)methyl 2-hydroxybutyrate]",fold less active (higher EC50) than C8-ester-CAI-1 (9),wild-type CqsS,> 9 fold
"CCCCCCCCOC(=O)C(O)CC (stereo not shown) [compound 9, Octyl 2-hydroxybutanoate]",maximal % response at the maximum concentration tested,CqsS C170Y,66 ^c %
"CCCCc1ccccc1COC(=O)C(O)CC (stereo not shown) [compound 44, 1-(o-Butyl-phenyl)methyl 2-hydroxybutyrate]",fold less active (higher EC50) than C8-ester-CAI-1 (9),wild-type CqsS,> 278 fold
same,QS activity (in words),wild-type CqsS,very weak responses
"CCCCCCCCCC(=O)[C@@H](O)CC [compound 1, S-3-hydroxytridecan-4-one, reference compound]",% Response (percent maximal bioluminescence),CqsS C170A; with respect to CAI-1 set at 100%,100±44%
same,maximal % response at the maximum concentration tested,CqsS C170Y,20 ^c %
"CCCCCOCCOC(=O)C(O)CC (stereo not shown) [compound 22, 2-(Pentyloxy)ethyl 2-hydroxybutanoate]",fold less active (higher EC50) than C8-ester-CAI-1 (9),wild-type CqsS,> 13 fold
"CCCCCCOCCOC(=O)C(O)CC (stereo not shown) [compound 24, 2-(Hexyloxy)ethyl 2-hydroxybutanoate]",fold less active (higher EC50) than C8-ester-CAI-1 (9),wild-type CqsS,> 13 fold
"CCCCCCCCCOC(=O)C(O)CC (stereo not shown) [compound 20, Nonyl 2-hydroxybutanoate]",fold more active (lower EC50) than C8-ester-CAI-1 (9),wild-type CqsS,2 fold
"CCCCCCCOC(=O)C(O)CC (stereo not shown) [compound 19, Heptyl 2-hydroxybutanoate]",fold less active (higher EC50) than C8-ester-CAI-1 (9),wild-type CqsS,2 fold
"CCCC/C=C/CCOC(=O)C(O)CC (stereo not shown) [compound 29, (E)-Oct-3-en-1-yl 2-hydroxybutanoate]",fold less active (higher EC50) than C8-ester-CAI-1 (9),wild-type CqsS,> 4 fold
"CCC(O)C(=O)OCCCCc1ccccc1 (stereo not shown) [compound 37, 4-Phenylbutyl 2-hydroxybutyrate]",maximal % response at the maximum concentration tested,"CqsS C170A; at 50,000 nM",16 ^c %
same,maximal % response at the maximum concentration tested,CqsS C170Y,22 ^c %
"CCc1ccccc1CCCOC(=O)C(O)CC (stereo not shown) [compound 49, 3-(o-Ethyl-phenyl)propyl 2-hydroxybutyrate]",fold less active (higher EC50) than C8-ester-CAI-1 (9),wild-type CqsS,> 278 fold
same,maximal % response at the maximum concentration tested,wild-type CqsS,28 ^c %
same,QS activity (in words),wild-type CqsS,very weak responses
"CCCCCCOC(=O)C(O)CC (stereo not shown) [compound 18, Hexyl 2-hydroxybutanoate]",fold less active (higher EC50) than C8-ester-CAI-1 (9),wild-type CqsS,greater than 4 fold
CCC(O)C(=O)O (stereo not shown) [2-hydroxybutyric acid],QS activity (in words),wild-type CqsS,no QS activity
"CCCCCCCCCCOC(=O)C(O)CC (stereo not shown) [compound 21, Decyl 2-hydroxybutanoate]",fold less active (higher EC50) than C8-ester-CAI-1 (9),wild-type CqsS,greater than 4 fold
CCCCCCCCO [1-octanol],QS activity (in words),wild-type CqsS,no QS activity
"CCC(O)C(=O)OCCCCCc1ccccc1 (stereo not shown) [compound 38, 5-Phenylpentyl 2-hydroxybutyrate]",maximal % response at the maximum concentration tested,CqsS C170Y,19 ^c %
"CCCCC/C=C/COC(=O)C(O)CC (stereo not shown) [compound 26, (E)-Oct-2-en-1-yl 2-hydroxybutanoate]",fold more active (lower EC50) than C8-ester-CAI-1 (9),wild-type CqsS,3 fold
"CCC/C=C/CCCOC(=O)C(O)CC (stereo not shown) [compound 32, (E)-Oct-4-enyl 2-hydroxybutanoate]",fold less active (higher EC50) than C8-ester-CAI-1 (9),wild-type CqsS,1.5 fold
